Like-named read-outs stand apart in the source and are kept apart here.
Experiments:
[1] = system: colorectal HCT-116 cancer cell line; experiment: In vitro cytotoxic activity (MTT assay), HCT-116; assay type: cell-based, human; settings: for inhibition at 100 µM / IC50: Homo sapiens; for inhibition at 100 µM: read-out: % inhibition ± SD HCT-116; for IC50: HCT-116 cells, MTT, read-out: IC50 (mean ± SD) HCT-116
Description: (§1) The supplemental file contained extra details.

[2] = system: liver HepG-2 cancer cell line; experiment: In vitro cytotoxic activity (MTT assay), HepG-2; settings: for IC50 / inhibition at 100 µM: Homo sapiens; for IC50: HepG2, read-out: IC50 (mean ± SD) HepG-2; for inhibition at 100 µM: HepG2, 48 h, read-out: % inhibition ± SD HepG-2
Description: as §1

[3] = system: breast MCF-7 cancer cell line; experiment: In vitro cytotoxic activity (MTT assay), MCF-7; assay type: cell-based, human; settings: for inhibition at 100 µM / IC50: Homo sapiens; for inhibition at 100 µM: read-out: % inhibition ± SD MCF-7; for IC50: MCF-7 cells, MTT, read-out: IC50 (mean ± SD) MCF-7
Description: as §1

[4] = system: lung A-549 cancer cell line; experiment: In vitro cytotoxic activity (MTT assay), A-549; settings: for inhibition at 100 µM / IC50: Homo sapiens; for inhibition at 100 µM: A549, 48 h, read-out: % inhibition ± SD A-549; for IC50: A549, read-out: IC50 (mean ± SD) A-549
Description: Exponentially, cells were placed in 10^4 cells/ well for 24 h, and then add fresh medium which containing different concentration of the tested sample. Serial two-fold dilution of the tested sample were added using a multichannel pipette. […] Rinse the wells using water until no stain. After that, add 30% glacial acetic acid to all wells with shaking plates on Microplate reader (TECAN, Inc.) to measure the absorbance, using a test wavelength of 490 nm. Besides, compare the treated samples with the control cell.

hCA XII = molecular target: T1, hCA XII (Homo sapiens, UniProt O43570); experiment: Carbonic anhydrase inhibition, stopped-flow CO2 hydration, hCA XII; assay type: biochemical; settings: read-out: IC50 (mean ± SD) Carbonic anhydrase isoforms hCA XII
T1 construct: made in house
Description: (§2) There was further information in the supplemental file.
(§3) An applied photophysics stopped-flow instrument was used for assaying the CA-catalyzed CO2 hydration activity. […] The CO2 concentrations ranged from 1.7 to 17 mM for the determination of the kinetic parameters and inhibition constants. For each inhibitor, at least six traces of the initial 5–10% of the reaction were used for determining the initial rate. The uncatalyzed rates were determined in the same manner and subtracted from the total observed rates. Stock solutions of inhibitor (0.1 mM) were prepared in distilled-deionized water, and dilutions up to 0.01 nM were done thereafter with distilled-deionized water. Inhibitor and enzyme solutions were preincubated together for 15 min at room temperature before assay in order to allow for the formation of the E-I complex. The inhibition constants were obtained by nonlinear least-squares methods using PRISM 3, and the Cheng –Prusoff equation, and represent the mean from at least three different determinations. All CA isoforms were recombinant ones obtained in-house.

hCA IX = molecular target: T2, hCA IX (Homo sapiens, UniProt Q16790); experiment: Carbonic anhydrase inhibition, stopped-flow CO2 hydration, hCA IX; assay type: biochemical; settings: read-out: IC50 (mean ± SD) Carbonic anhydrase isoforms hCA IX
T2 construct: made in house
Description: as §2, §3

[5] = system: retinal pigment epithelial normal RPE-1 cell line; experiment: Cytotoxic activity (MTT assay) against normal cell line RPE-1; assay type: cell-based; settings: Homo sapiens, normal RPE-1 cells, read-out: IC50 (mean ± SD) RPE-1
Description: Furthermore, the MTT assay was utilized to estimate the cytotoxic activity of the extremely potent derivatives 4, 7 and 9 against the normal cell line RPE-1, with the aim of examining their safety profiles (Table 1). […] They could therefore be thought of as safe cytotoxic agents.
as §1

VEGFR-2 = VEGFR-2 (Homo sapiens, UniProt P35968); experiment: In vitro inhibitory assessment against VEGFR-2 (ELISA, MCF-7 cell homogenates); assay type: cell-based; settings: read-out: IC50 (mean ± SD) VEGFR-2
Description: as §2
The cells were harvested and the homogenates were prepared in saline using a tight pestle homogenizer until complete cell disruption. The kit uses a double-antibody sandwich enzyme-linked immunosorbent assay (ELISA) to determine the level of human VEGFR-2 in samples. A monoclonal antibody for VEGFR-2 was pre-coated onto 96-well plates. The test samples are added to the wells and a biotinylated detection polyclonal antibody from goat specific for VEGFR-2 was added subsequently followed by washing with PBS buffer. Avidin-Biotin-Peroxidase complex was added and the unbound conjugates were washed away with PBS buffer. HRP substrate TMB was used to visualize HRP enzymatic reaction. TMB was catalyzed by HRP to produce a blue color product that changed into yellow after adding acidic stop solution. The density of yellow color is proportional to the human VEGFR-2 amount of the sample captured in the plate. The chroma of color and the concentration of the human VEGFR-2 of the samples were positively correlated and the optical density was determined at 450 nm. The level of human VEGFR-2 in samples was calculated (pg/ml) as duplicate determinations from the standard curve. Percent inhibition was calculated in comparison to control untreated cells.

Chain of VEGFR-2 (P35968 20-1356): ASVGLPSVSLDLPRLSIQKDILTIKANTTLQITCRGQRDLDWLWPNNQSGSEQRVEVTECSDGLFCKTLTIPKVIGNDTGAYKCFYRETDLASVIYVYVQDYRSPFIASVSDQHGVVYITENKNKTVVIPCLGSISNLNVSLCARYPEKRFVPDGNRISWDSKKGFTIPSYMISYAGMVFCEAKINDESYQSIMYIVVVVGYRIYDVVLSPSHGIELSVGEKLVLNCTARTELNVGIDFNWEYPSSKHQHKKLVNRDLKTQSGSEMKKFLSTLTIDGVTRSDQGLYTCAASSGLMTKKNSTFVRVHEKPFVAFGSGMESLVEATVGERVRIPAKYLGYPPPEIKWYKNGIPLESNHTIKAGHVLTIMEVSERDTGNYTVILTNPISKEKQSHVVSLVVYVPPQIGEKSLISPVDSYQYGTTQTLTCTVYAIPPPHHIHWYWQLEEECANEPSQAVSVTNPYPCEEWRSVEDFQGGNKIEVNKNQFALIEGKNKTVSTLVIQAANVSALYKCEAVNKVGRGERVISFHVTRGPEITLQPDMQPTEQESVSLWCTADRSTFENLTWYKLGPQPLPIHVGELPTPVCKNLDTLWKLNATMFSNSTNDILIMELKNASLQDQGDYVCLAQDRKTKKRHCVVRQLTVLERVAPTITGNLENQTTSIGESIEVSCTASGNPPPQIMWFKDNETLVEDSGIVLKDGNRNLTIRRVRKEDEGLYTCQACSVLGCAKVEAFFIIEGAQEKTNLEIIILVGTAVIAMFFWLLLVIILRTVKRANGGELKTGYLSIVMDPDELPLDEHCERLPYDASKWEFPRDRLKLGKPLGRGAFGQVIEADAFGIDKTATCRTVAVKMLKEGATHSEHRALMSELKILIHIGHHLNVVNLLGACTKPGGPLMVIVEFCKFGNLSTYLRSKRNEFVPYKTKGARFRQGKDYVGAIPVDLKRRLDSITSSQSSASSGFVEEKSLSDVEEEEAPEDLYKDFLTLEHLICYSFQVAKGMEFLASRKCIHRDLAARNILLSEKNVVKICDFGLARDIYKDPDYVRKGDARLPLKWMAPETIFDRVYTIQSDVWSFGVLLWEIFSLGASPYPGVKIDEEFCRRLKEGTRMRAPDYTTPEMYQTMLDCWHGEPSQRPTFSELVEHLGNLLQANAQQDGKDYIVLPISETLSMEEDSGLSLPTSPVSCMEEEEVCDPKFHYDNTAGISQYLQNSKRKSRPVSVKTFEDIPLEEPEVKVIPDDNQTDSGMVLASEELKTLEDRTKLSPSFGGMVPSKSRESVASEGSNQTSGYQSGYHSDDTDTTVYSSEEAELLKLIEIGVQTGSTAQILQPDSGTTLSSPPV
T1 sequence (O43570 25-354): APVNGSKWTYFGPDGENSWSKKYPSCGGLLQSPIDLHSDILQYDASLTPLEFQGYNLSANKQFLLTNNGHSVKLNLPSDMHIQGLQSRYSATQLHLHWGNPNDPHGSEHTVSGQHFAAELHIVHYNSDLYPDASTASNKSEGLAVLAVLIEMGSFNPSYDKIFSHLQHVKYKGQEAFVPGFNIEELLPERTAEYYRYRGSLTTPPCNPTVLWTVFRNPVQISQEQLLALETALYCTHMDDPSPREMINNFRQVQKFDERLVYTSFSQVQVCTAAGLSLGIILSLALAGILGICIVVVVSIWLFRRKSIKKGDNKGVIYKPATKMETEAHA

SMILES | melting point [°C] | inhibition at 100 µM ([1]; HCT-116, 100 µM, 48 h) [%] | percentage cytotoxicity on HepG-2 ([2]; 12.5 µM) [%] | percentage cytotoxicity on HepG-2 ([2]; 25 µM) [%] | percentage cytotoxicity on HepG-2 ([2]; 50 µM) [%] | percentage cytotoxicity on HepG-2 ([2]; 100 µM) [%] | IC50 [2] [µM] | inhibition at 100 µM ([3]; MCF7, 100 µM, 48 h) [%] | inhibition at 100 µM [4] [%] | percentage cytotoxicity on MCF-7 ([3]; 12.5 µM) [%] | percentage cytotoxicity on MCF-7 ([3]; 25 µM) [%] | percentage cytotoxicity on MCF-7 ([3]; 50 µM) [%] | percentage cytotoxicity on MCF-7 ([3]; 100 µM) [%] | IC50 ([3]; MCF7) [µM] | also measured
CCCCNS(=O)(=O)c1ccc(N=[N+]=[N-])cc1 [Compound 3, 4-Azido-N-butylbenzenesulfonamide] | 47 to 49 | 16.7 ± 0.6 | 3.76±5.32 | 19.08±1.88 | 49.40±1.91 | 71.40±0.91 | 57.6 ± 12.2 | 51.97 ± 0.29 | 20.47 ± 0.15 | – | – | – | – | – | –
CCCCNS(=O)(=O)c1ccc(-n2cc(CO[C@@H]3O[C@H](COC(C)=O)[C@H](OC(C)=O)[C@H](OC(C)=O)[C@H]3OC(C)=O)nn2)cc1 [Compound 6, N-butyl-4-(4-([2,3,4,6-tetra-O-acetyl-β-D-galactopyranosyl]oxymethyl)-1H-1,2,3-triazol-1-yl)benzenesulfonamide] | – | 0 | – | – | – | – | – | 37.5 ± 0.52 | 32.53 ± 0.15 | – | – | – | – | – | inhibition at 100 µM [2]: 8.93 ± 0.74%
CC(=O)OC[C@H]1O[C@@H](OCc2cn(-c3ccc(S(=O)(=O)NC4CCCCC4)cc3)nn2)[C@H](OC(C)=O)[C@@H](OC(C)=O)[C@H]1OC(C)=O [Compound 7, N-cyclohexyl-4-(4-([2,3,4,6-tetra-O-acetyl-β-D-galactopyranosyl]oxymethyl)-1H-1,2,3-triazol-1-yl)benzenesulfonamide] | – | 75.7 ± 0.96 | 84.09±0.85 | 85.07±0.05 | 85.58±0.88 | 87.60±1.73 | 10.5 ± 0.13 | 98.89 ± 0.19 | 94.1 ± 0.51 | 30.37±3.66 | 55.90±1.44 | 88.77±2.70 | 98.89±0.19 | 20.3 ± 0.66 | IC50 (hCA XII): 0.0076 µM; percentage cytotoxicity on HCT-116 ([1]; 12.5 µM): 32.50±1.25%; percentage cytotoxicity on HCT-116 ([1]; 25 µM): 48.80±0.95%; percentage cytotoxicity on HCT-116 ([1]; 50 µM): 50.70±0.70%; percentage cytotoxicity on HCT-116 ([1]; 100 µM): 75.70±0.96%; IC50 [1]: 32 ± 0.42 µM; IC50 (hCA IX): 0.066 µM; IC50 [5]: 82.58 ± 0.52 µM; IC50 (VEGFR-2): 1.33 ± 0.1 µM; percentage cytotoxicity on A-549 ([4]; 12.5 µM): 12.60±0.82%; percentage cytotoxicity on A-549 ([4]; 25 µM): 29.31±0.02%; percentage cytotoxicity on A-549 ([4]; 50 µM): 60.23±1.47%; percentage cytotoxicity on A-549 ([4]; 100 µM): 94.10±0.51%; IC50 [4]: 20.4 ± 0.28 µM
CCCCNS(=O)(=O)c1ccc(-n2cc(CO[C@@H]3OC[C@@H](OC(C)=O)[C@H](OC(C)=O)[C@H]3OC(C)=O)nn2)cc1 [Compound 8, N-butyl-4-(4-([2,3,4-tri-O-acetyl-β-D-xylopyranosyl]oxymethyl)-1H-1,2,3-triazol-1-yl)benzenesulfonamide] | – | 41.05 ± 0.18 | 23.15±0.43 | 32.80±2.12 | 50.73±1.45 | 69.17±0.21 | 47 ± 0.51 | 66 ± 0.69 | 58.1 ± 0.56 | 29.56±1.66 | 36.13±2.06 | 49.80±0.41 | 66.04±0.69 | 46.49 ± 0.42 | –
CCCCNS(=O)(=O)c1ccc(-n2cc(CO[C@@H]3O[C@H](CO)[C@H](O)[C@H](O)[C@H]3O)nn2)cc1 [Compound 10, N-butyl-4-(4-([β-D-Galactopyranosyl]oxymethyl)-1H-1,2,3-triazol-1-yl)benzenesulfonamide] | 100 to 102 | 8.91 ± 2.7 | – | – | – | – | – | 25.4 ± 0.91 | 32 ± 0.84 | – | – | – | – | – | inhibition at 100 µM [2]: 35.9 ± 0.42%
O=S(=O)(NC1CCCCC1)c1ccc(-n2cc(CO[C@@H]3O[C@H](CO)[C@H](O)[C@H](O)[C@H]3O)nn2)cc1 [Compound 11, N-cyclohexyl-4-(4-([β-D-galactopyranosyl]oxymethyl)-1H-1,2,3-triazol-1-yl)benzenesulfonamide] | 118 to 120 | 39 ± 0.96 | 44.80±0.50 | 57.70±0.87 | 62.70±0.36 | 73.85±1.06 | 16.9 ± 0.09 | 20.8 ± 0.79 | 30.1 ± 0.62 | – | – | – | – | – | –
CCCCNS(=O)(=O)c1ccc(-n2cc(CO[C@@H]3OC[C@@H](O)[C@H](O)[C@H]3O)nn2)cc1 [Compound 12, N-butyl-4-(4-([β-D-Xylopyranosyl]oxymethyl)-1H-1,2,3-triazol-1-yl)benzenesulfonamide] | 150 to 152 | – | 33.95±0.33 | 44.70±1.13 | 55.95±0.44 | 62.86±1.19 | 36.44 ± 0.12 | – | 17.8 ± 0.95 | – | – | – | – | – | inhibition at 100 µM ([1]; HCT-116, 48 h): 0%; inhibition at 100 µM ([3]; MCF7, 48 h): 41.4 ± 0.91%
O=S(=O)(NC1CCCCC1)c1ccc(-n2cc(CO[C@@H]3OC[C@@H](O)[C@H](O)[C@H]3O)nn2)cc1 [Compound 13, N-cyclohexyl-4-(4-([β-D-Xylopyranosyl]oxymethyl)-1H-1,2,3-triazol-1-yl)benzenesulfonamide] | 160 to 162 | 70.1 ± 1.05 | 43.30±0.66 | 38.80±0.40 | 56.20±1.29 | 75.10±0.12 | 30.01 ± 0.06 | 71.43 ± 0.03 | 54.6 ± 0.97 | 34.87±5.91 | 48.07±4.31 | 54.73±1.88 | 71.43±2.03 | 30.83 ± 0.2 | percentage cytotoxicity on HCT-116 ([1]; 12.5 µM): 11.00±0.65%; percentage cytotoxicity on HCT-116 ([1]; 25 µM): 28.51±0.69%; percentage cytotoxicity on HCT-116 ([1]; 50 µM): 47.00±0.79%; percentage cytotoxicity on HCT-116 ([1]; 100 µM): 70.10±1.05%; IC50 [1]: 53.1 ± 0.69 µM
COc1cccc2c1C(=O)c1c(O)c3c(c(O)c1C2=O)C[C@@](O)(C(=O)CO)C[C@@H]3O[C@H]1C[C@H](N)[C@H](O)[C@H](C)O1 [Doxorubicin, reference compound] | – | 100 ± 0.25 | – | – | – | – | 13.8 ± 0.45 | 100 ± 0.08 | 100 ± 0.2 | – | – | – | – | 17.4 ± 0.46 | –
CCN(CC)CCNC(=O)c1c(C)[nH]c(/C=C2\C(=O)Nc3ccc(F)cc32)c1C [Sunitinib, reference compound] | – | – | – | – | – | – | – | – | – | – | – | – | – | – | IC50 [4]: 10.1 ± 0.5 µM

Reference: article PMC11156913, “New sulfonamide-based glycosides incorporated 1,2,3-triazole as cytotoxic agents through VEGFR-2 and carbonic anhydrase inhibitory activity” (Scientific Reports, 2024)
